Experimental data taken from patent publication US20230158015A1, “DRUG COMBINATIONS FOR INHIBITING INFLAMMATION AND SRC KINASE ACTIVATION FOLLOWING INVASIVE SURGICAL PROCEDURES” (SINTETICA S.A., priority 2020, published 2023).
Like-named read-outs stand apart in the source and are kept apart here.

Assays:
p-Src / total Src [1] = format: cell-based, mouse
Protocol: On day 1, mouse KPC-105 cells were cultured until 300,000 cells per well in a 6 well plate were obtained. On day 2, the cells were treated with 0, 0.5, 1,5, 10, 15, 30, 50 and 100 µM lidocaine for 30 minutes. Plates were then collected and washed with phosphate buffered saline and stored at -80° C. Cells were subsequently lysed with 100 µl of radioimmunoprecipitation assay buffer with protease and phosphatase buffers.
Protein estimation was done using a Bradford assay under the following conditions: • A Western Blot was stripped with 6 M guanidine hydrochloride after p-Src protein blocking to probe with total Src protein. • 10% SDS-PAGE 10 well Blocking: 5% bovine serum albumin for p-Src blot. • P-Src-Tyr416 (GeneTex GTX81151) Rb: 1:1000 in 5% bovine serum albumin, Overnight. • Total Src (Cell Signaling Technology 2108S ) Rb mAb 1:1000 overnight in 5% milk. • GAPDH (Invitrogen# AM4300) : 1:5000 in 5% milk overnight. • Wash: 4x for 5 minutes each with 1x TBST. • Developed using 50% femto for the p-Src protein and homemade ECL substrate for total Src and GAPDH protein.
Example 4 evaluated endogenous Src and p-Src in 10 µM lidocaine treated mouse KPC-105 cells at different time points.
Example 5 evaluated endogenous Src and p-Src in mouse KPC-105 cells treated with 10 10 µM lidocaine for different time points, and increasing doses of methylnaltrexone after one hour of incubation. Western Blot banding patterns were generated using 15 µg /lane (NP40 lysates) 10% SDS PAGE over a 6-hour duration (lidocaine) and a 1-hour duration (methylnaltrexone).
• P-Src-Tyr416 (GeneTex # GTX81151) Rb: 1:1000 in 5% bovine serum albumin o/n at 4° C. • 10 µg /lane (NP40 lysates) 10% SDS PAGE • Total Src (CST # 2108S ) Rb mAb 1:1000 in 5% bovine serum albumin o/n at 4° C.
• P-Src-Tyr416 (GeneTex # GTX81151) Rb: 1:1000 in 5% bovine serum albumin 3 hours at room temperature • 10 µg /lane (NP40 lysates) 10% SDS PAGE • Total Src (CST # 2108S ) Rb mAb 1:1000 in 5% bovine serum albumin 3 hours at room temperature
• P-Src-Tyr416 (GeneTex # GTX81151) 1:2000 in 5% bovine serum albumin, o/n at 4° C. • Total Src (CST # 2108S ) 1:3000 in 5% bovine serum albumin, o/n at 4° C. • Vinculin (ProteinTech) 1:4000 in 5% milk o/n at 4° C.
• P-Src-Tyr416 (GeneTex # GTX81151) 1:2000 in 5% bovine serum albumin, o/n at 4C • Total Src (CST # 2108S ) 1:3000 in 5% bovine serum albumin, o/n at 4C

p-Src / total Src [2] = assay: Total Src and p-Src expression in AsPc 1 human pancreatic cancer cell line (Western blot); format: cell-based; conditions: 10 µM lidocaine, 100 nM methylnaltrexone or both, one hour
Protocol: Example 10 evaluated the effect of 10 µM lidocaine (L), 100 nM methylnaltrexone (M) and the combination of 10 µM lidocaine + 100 nM methylnaltrexone (L+M) for 1 hour on total Src and p-Src expression in a human pancreatic cancer cell line (AsPc 1).
• P-Src-Tyr416 (GeneTex # GTX81151) 1:2000 in 5% bovine serum albumin, at room temperature, 4 hours • Total Src (CST # 2108S) 1:3000 in 5% bovine serum albumin, at room temperature, 4 hours

[3] = Example 4, 10 µM lidocaine, different time points
[4] = Example 8, 10 µM lidocaine, 100 nM methylnaltrexone or both, different time points

Which “dose from which the level of p-Src protein is reduced” value (p-Src / total Src [1]; Example 3, 30 minutes of treatment, 0-100 µM tested) does the source give for CCN(CC)CC(=O)Nc1c(C)cccc1C [lidocaine, 2-diethylaminoaceto-2′,6′-xylidide] here?
The value was no less than 10 µM.

What about the “Src phosphorylation (p-Src)” value (p-Src / total Src [1]; [3]) of the same compound?
Its value is “attenuated Src phosphorylation after 15 minutes and up to 6 hours”.

And the “total Src” value (p-Src / total Src [1]; [3])?
Its value is “not affected”.

What about the “total Src” value (p-Src / total Src [1]; Example 5, 10 µM lidocaine over 6 hours, increasing doses of methylnaltrexone, 1 hour) of the same compound?
Its value is “not affected”.

And the “Src phosphorylation (p-Src)” value (p-Src / total Src [1]; Example 5, 10 µM lidocaine, different time points, inconsistent banding pattern)?
The value was “attenuated Src phosphorylation at 30 minutes, 1 hour, 2 hours, and 6 hours”.

And the “phosphorylation of Src” value (p-Src / total Src [1]; [4])?
The value was “attenuated phosphorylation of Src after 1 hour of exposure”.

What about the “total Src” value (p-Src / total Src [1]; [4]) of the same compound?
Its value is “decreased total Src after 1 hours of exposure”.

What about the p-Src activity (p-Src / total Src [2]) of the same compound?
Its p-Src activity is “attenuated p-Src activity”.
